Like-named read-outs stand apart in the source and are kept apart here.
What was measured:
S. maltophilia = assay: MIC against S. maltophilia isolates; type: cell-based, Stenotrophomonas maltophilia
Procedure, shortened: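 MIC in μg/mL for Chp peptides across several S. maltophilia isolates, n denoting the number of isolates tested.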

[1] = tested on: P. aeruginosa strain CFS-1292; assay: MIC in presence and absence of NaCl (140 mM); type: cell-based, Pseudomonas aeruginosa
Method: Certain Chp peptides were evaluated over a range of physiological NaCl levels and pH values, and were further evaluated for activity in the presence of various divalent cations.

[2] = tested on: P. aeruginosa strain CFS-1292; assay: MIC in presence of divalent cations (calcium chloride, magnesium sulfate); type: cell-based, Pseudomonas aeruginosa
Method: Next, Chp peptides were evaluated in the presence of different divalent cations. […]; (2) in the presence of 2 mM calcium chloride alone; (3) in the presence of 1 mM magnesium sulfate alone; and (4) in the presence of both 2 mM calcium chloride and 1 mM magnesium sulfate. […]

Klebsiella pneumoniae = type: cell-based
Method: (§1) Determination of Minimal Inhibitory Concentrations (MIC).
(§2) Additional MIC testing was performed for several peptides against the ESKAPE pathogens Escherichia coli, Enterobacter cloacae, Klebsiella pneumoniae, and Acinetobacter baumannii, in CAA supplemented with human serum (Table D).

Escherichia coli = assay: microbe, parasite or virus in culture; type: cell-based
Procedure, shortened: (§3)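 Peptide MICs were determined by growth inhibition in CAA medium supplemented with human serum.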

Enterobacter cloacae = assay: microbe, parasite or virus in culture; type: cell-based
Procedure, shortened: as §3

[3] = tested on: carbapenem-resistant bacterial strains; assay: organism not typed; type: cell-based
From the text: as §1

M. scrofulaceum = assay: 45 hr MIC against M. scrofulaceum (NTM); type: cell-based, Mycobacterium scrofulaceum; details: M. scrofulaceum Prissick and Masson ATCC 19981
Acinetobacter baumannii = assay: microbe, parasite or virus in culture; type: cell-based
Pseudomonas aeruginosa = assay: microbe, parasite or virus in culture; type: cell-based; details: P. aeruginosa isolates (n per peptide in table)
M. avium = assay: 45 hr MIC against M. avium (NTM); type: cell-based, Mycobacterium avium; details: M. avium Chester ATCC 700898
[4] = tested on: Pseudomonas aeruginosa, Escherichia coli, Enterobacter cloacae, Klebsiella pneumoniae, and Acinetobacter baumannii; assay: MIC against a range of Gram-negative organisms (statements covering several species); type: cell-based; details: Tables 40-44 isolates
Method: as §1, §2

M. smegmatis = assay: 45 hr MIC against M. smegmatis (NTM), Mueller Hinton broth; type: cell-based, Mycobacterium smegmatis
[5] = tested on: P. aeruginosa strain CFS-1292; assay: MIC at pH 6, pH 7 and pH 8; type: cell-based, Pseudomonas aeruginosa
Method: The Chp peptides were further evaluated at varying pH levels. The MIC values were determined at pH 6, pH 7, and pH 8 for 18 different Chp peptides against P. aeruginosa strain CFS-1292. […]

[6] = Stability assessment in 100% CAA; type: in vitro ADME; set-up: unit not given beside the values
Method: Stability was assessed after incubation in 100% human serum at 37° C. after 10 minutes, 1 hour, and 2 hours.
Stability assessment was further conducted in 100% CAA and rabbit serum using the same methodology discussed above.

[7] = tested on: carbapenem-resistant P. aeruginosa clinical isolate CFS-1292; assay: MIC by modified CLSI broth microdilution against P. aeruginosa CFS-1292 (CAA, CAA + human serum); type: cell-based, Pseudomonas aeruginosa
[8] = tested on: Mycobacterium tuberculosis strains
Method: MIC values for various Chp peptides were determined using the CLSI method for broth microdilution in 96-well microtiter format.
Next, MIC values for various Chp peptides were determined using the CLSI method above for broth microdilution in 96-well microtiter format for two different Mycobacterium tuberculosis strains. The MIC was determined as explained above for the NTM strains.

[9] = tested on: P. aeruginosa strain CFS-1292; assay: MIC in presence and absence of Survanta pulmonary surfactant; type: cell-based, Pseudomonas aeruginosa
M. fortuitum = assay: 45 hr MIC against M. fortuitum (NTM); type: cell-based, Mycobacterium fortuitum; details: M. fortuitum subsp. Fortuitum da Costa Cruz. ATCC 6841
[10] = tested on: M. kansasii Hauduroy ATCC 12478; assay: 45 hr MIC against M. kansasii (NTM), Mueller Hinton broth; type: cell-based, Mycobacterium kansasii
M. intracellulare = assay: 45 hr MIC against M. intracellulare (NTM); type: cell-based, Mycobacterium intracellulare; details: M. intracellulare (Cuttino and McCabe) Runyon ATCC 13950
[11] = tested on: P. aeruginosa strain CFS-1292; assay: MIC in presence of mouse, rat, rabbit and human serum ([…] each); type: cell-based, Pseudomonas aeruginosa; details: P. aeruginosa CFS-1292
Method: The activity of several Chp peptides against P. aeruginosa strain CFS-1292 in animal serum was evaluated. […] Rat, mouse, and rabbit serum were all obtained from pooled gender samples.

[12] = S. maltophilia isolates (n per peptide in table)
[13] = K. pneumoniae isolates (n per peptide in table)
[14] = E. coli isolates (n per peptide in table)
[15] = E. cloacae isolates (n per peptide in table)
[16] = A. baumannii isolates (n per peptide in table)

## MRRRRLSRRTSRRFFRKGLKVRRRNLRARPMRGGFRI [Unp2]
S. maltophilia; [12]
  MIC50: 0.5 µg/mL
  MIC100: 1 µg/mL
  MIC Range: 0.25 to 2 µg/mL
S. maltophilia; Table 45 isolates
  activity against S. maltophilia: active
[1]; CAA + 140 mM NaCl versus CAA without added NaCl
  Fold change in MIC: 4
[1]; CAA + 140 mM NaCl, P. aeruginosa CFS-1292
  MIC, CAA + 140 mM NaCl: 2 µg/mL
[1]; CAA, no added NaCl, P. aeruginosa CFS-1292
  MIC, CAA (no added NaCl): 0.5 µg/mL
[2]; CAA media + 1 mM MgSO4
  MIC: 0.25 µg/mL
[2]; CAA media + 2 mM CaCl2
  MIC: 0.25 µg/mL
[2]; CAA media + + 1 mM MgSO4
  MIC: 0.5 µg/mL
[2]; CAA media alone
  MIC: 0.25 µg/mL
Klebsiella pneumoniae; [13]
  MIC50: 0.5 µg/mL
  MIC100: 1 µg/mL
  MIC Range: 0.25 to 1 µg/mL
Klebsiella pneumoniae; Klebsiella pneumoniae HM-44, CAA supplemented with human serum
  MIC: 0.125 µg/mL
Escherichia coli; [14]
  MIC50: 0.25 µg/mL
  MIC100: 1 µg/mL
  MIC Range: 0.125 to 1 µg/mL
Escherichia coli; Escherichia coli ATCC 25922, CAA supplemented with human serum
  MIC: 0.25 µg/mL
Enterobacter cloacae; [15]
  MIC50: 0.25 µg/mL
  MIC100: 0.5 µg/mL
  MIC Range: 0.25 to 2 µg/mL
Enterobacter cloacae; Enterobacter cloacae ATCC 13047, CAA supplemented with human serum
  MIC: 16 µg/mL
[3]; carbapenem-resistant isolate PA19
  MIC: 0.5 µg/mL
[3]; carbapenem-resistant isolate PA20
  MIC: 1 µg/mL
[3]; carbapenem-resistant isolate PA21
  MIC: 2 µg/mL
[3]; carbapenem-resistant isolate PA22
  MIC: 1 µg/mL
[3]; carbapenem-resistant isolate PA23
  MIC: 1 µg/mL
[3]; carbapenem-resistant isolate PA24
  MIC: 1 µg/mL
[3]; carbapenem-resistant isolate WLC-452
  MIC: 0.5 µg/mL
M. scrofulaceum
  45 hr MIC: 4 µg/mL
Acinetobacter baumannii; [16]
  MIC50: 0.5 µg/mL
  MIC100: 0.5 µg/mL
  MIC Range: 0.25 to 1 µg/mL
Acinetobacter baumannii; Acinetobacter baumannii ATCC BAA 747, CAA supplemented with human serum
  MIC: 1 µg/mL
Pseudomonas aeruginosa
  MIC50: 1 µg/mL
  MIC100: 1 µg/mL
  MIC Range: 0.5 to 2 µg/mL
M. avium
  45 hr MIC: 0.5 µg/mL
[4]
  activity (good = MIC100 of ≤4) against all of P. aeruginosa, K. pneumoniae, A. baumannii, E. cloacae, and E. coli: good activity
M. smegmatis; M. smegmatis MC^2 155, Run #1
  45 hr MIC: 2 µg/mL
M. smegmatis; M. smegmatis MC^2 155, Run #2
  45 hr MIC: 4 µg/mL
[5]; CAA media (pH 7)
  MIC: 0.5 µg/mL
[5]; pH 6
  MIC: 0.5 µg/mL
[5]; pH 7
  MIC: 0.5 µg/mL
[5]; pH 8
  MIC: 0.5 µg/mL
[6]
  MIC (100% CAA): 0.25
[7]; 100% CAA, 1st run or single value
  MIC (μg/mL) against CFS-1292 in 100% CAA (1st run/2nd run): 0.5 µg/mL
[7]; CAA + […] human serum
  MIC (μg/mL) against CFS-1292 in CAA + […] human serum: 0.5 µg/mL
[8]; Mycobacterium tuberculosis (Zopf) Lehmann and Neumann ATCC 25177
  MIC: 16 µg/mL
[8]; Mycobacterium tuberculosis (Zopf) Lehmann and Neumann ATCC 35817
  MIC: 4 µg/mL
[9]; CAA media + 0.19 mg/mL Survanta
  MIC: 0.5 µg/mL
[9]; CAA media + […] Survanta
  MIC: 0.5 µg/mL
[9]; CAA media alone
  MIC: 0.5 µg/mL
M. fortuitum
  45 hr MIC: 2 µg/mL
[10]
  45 hr MIC: 2 µg/mL
M. intracellulare
  45 hr MIC: 1 µg/mL
[11]; BALB/C mouse serum […]
  MIC BALB/C Mouse Serum: >32 µg/mL
[11]; CAA
  MIC CAA: 0.5 µg/mL
[11]; New Zealand White rabbit serum […]
  MIC New Zealand White Rabbit Serum: 4 µg/mL
[11]; Sprague Dawley rat serum […]
  MIC Sprague Dawley Rat Serum: 8 µg/mL
[11]; human serum […]
  MIC Human Serum: 0.5 µg/mL
